Data from PMC5967867, “An NMDAR positive and negative allosteric modulator series share a binding site and are interconverted by methyl groups” (eLife, 2018).

System: diheteromeric NMDARs
Test: Two-electrode voltage-clamp recordings, statements across all diheteromeric NMDARs
Type: cell-based, rat
Method: cDNAs for rat wild type NMDAR subunits GluN1-1a (GenBank U11418, U08261; hereafter GluN1 or GluN1a), GluN1-1b (U08263, hereafter GluN1b), GluN2A (D13211), GluN2B (U11419), GluN2C (M91563), and GluN2D (L31611, modified as described in [Monyer et al., 1994]) were provided by Drs. S. Heinemann (Salk Institute), S. Nakanishi (Kyoto University), and P. Seeburg (University of Heidelberg). Site-directed mutagenesis was conducted using the QuikChange kit (Agilent Technologies, Santa Clara, CA) following the recommended protocol. DNA sequencing was used to verify all mutations. The amino acid numbering system started with the initiating methionine as residue number one. For expression in Xenopus laevis oocytes, cDNA constructs were linearized by restriction enzymes, and subsequently used to synthesize in vitro cRNAs following the manufacturer’s protocol (mMessage mMachine, Ambion, ThermoFisher Scientific, Waltham, MA).
Xenopus laevis stage VI oocytes (Ecocyte Biosciences, Austin, TX) were injected as previously described ([Hansen et al., 2013]) 2–7 days prior to recording with cRNA encoding the NMDAR subunits and stored at 15°C in media containing (in mM) 88 NaCl, 2.4 NaHCO3, 1 KCl, 0.33 Ca(NO3)2, 0.41 CaCl2, 0.82 MgSO4, 5 Tris-HCl; pH was adjusted to 7.4 with NaOH and the solution supplemented with 1 U/mL penicillin, 0.1 mg/mL gentamicin sulfate, and 1 μg/mL streptomycin. Two-electrode voltage-clamp recordings were performed at room temperature (21–23°C) using different internal solutions for voltage and current electrodes (0.3 M and 3.0 M KCl, respectively). All extracellular solutions were made from a solution containing (in mM) 90 NaCl, 1 KCl, 10 HEPES, 0.5 BaCl2, 0.01 EDTA (pH 7.4 with NaOH). Experiments were performed using an eight port Modular Valve Positioner (Hamilton Company, Reno, NV) and controlled by custom software (Easy Oocyte, Emory University, Atlanta, GA)to exchange solutions. Oocyte currents were recorded at a holding potential of −40 mV using a two-electrode voltage-clamp amplifier (OC-725B or OC-725C, Warner Instruments, Hamden, CT). […]

With CCOC(=O)c1c(NC(=O)CC2SC(=N)NC2=O)sc2c1CCCC2 (stereo not drawn) [EU1794-4, ethyl 2-(2-(2-imino-4-oxothiazolidin-5-yl)acetamido)-4,5,6,7-tetrahydrobenzo[b]thiophene-3-carboxylate] the “potency of (-) enantiomer relative to (+) enantiomer” value (inhibition, across subtypes) was 3–10 fold, the “residual current at saturating levels” value (saturating EU1794-4) was 30–60% and the saturated inhibition (saturating modulator and agonist, across NMDAR subtypes) was 40–70 % of control.
